Drawing on ChEMBL document CHEMBL3507680, “University of Dundee, Gates Library screen for HepG2 cell viability”, this text covers cytotoxicity for 68 molecules.

Molecules are shown by their SMILES.

This series in a line: Human HepG2 cell viability assay in 384 well format. The format is toxicity, cell-based. The arrangement: dose 125 nL, time 70.5 hour; concentration not given beside the values. The conditions noted are these: HepG2 cells, read-out: Inhibition.
Take `CC(C)c1nc(C2CCCN2c2ncc(C(N)=O)cc2Cl)no1` (stereo not drawn): the cytotoxicity at 70.5 h stood at 12.4%. With `CN(CC(=O)NC(C)(C#N)C1CC1)Cc1nc2ccccc2n1C` (stereo not drawn) the figure was 4.49%; with `COCCNC(=O)NCCCOC1CCCc2ccccc21` (stereo not drawn), 1.91%. Regarding `Cc1nc(Cn2cc(I)cc(C)c2=O)oc1C`, the cytotoxicity at 70.5 h is 2.15%. As for `O=C(CCc1ccsc1)N1CCC(C(=O)O)(c2ccccc2)CC1`, the figure is -0.12%; as for `CN1CCN(C(=O)CCc2cccnc2)c2ccc(F)cc21`, 1.2%.

Turning to `FC(F)Oc1ccc(NCc2nc(C3CC3)no2)c(OC(F)F)c1`, the cytotoxicity at 70.5 h was 1.35%.

As for `Cc1cccc(NC(=O)CCNCc2c(C)nn(C)c2N(C)C)n1`, the cytotoxicity at 70.5 h is 2.77%.

As for `COc1ccc(COCC(O)CN(C)c2ccc(C)cc2C)cc1` (stereo not drawn), the cytotoxicity at 70.5 h stood at 0.463%. With `COc1ccc2c(ccn2CC(=O)N2CCCC2Cn2cccn2)c1` (stereo not drawn) the figure was 3.03%; with `Cc1cnn(CCNCCCOc2ccc(C#N)cc2)c1`, 3.37%; with `c1cnn(CCNCCCOc2ccc3c(c2)OCO3)c1`, 0.993%. With `CC1CN(Cc2ccccc2)CCCN1CCNS(C)(=O)=O` (stereo not drawn) the figure was -0.345%; with `Cc1cnn(CCCNC2Cc3ccccc3C2)c1`, 9.93%; with `CCC(C)NC(=O)CS(=O)(=O)Cc1cc(C)ccc1C` (stereo not drawn), -11.2%.

With `CCc1noc(CS(=O)(=O)CC(=O)N2c3ccccc3CC2C)n1` (stereo not drawn), the cytotoxicity at 70.5 h is -12.6%. Take `CN(C)C(CNCc1nc(-c2ccsc2)no1)c1ccsc1` (stereo not drawn): the cytotoxicity at 70.5 h was determined as 4.31%. As for `CN(C)c1ccc(NC(=O)N2CCCCCC2c2ccncc2)cn1` (stereo not drawn), the figure is -10.6%.

As for `O=C(CNC(=O)c1cnc2ccccc2c1O)NCCn1ccnc1`, the cytotoxicity at 70.5 h was -6.04%. As for `CCS(=O)(=O)CC(=O)NC(C)c1ccc(F)cc1F` (stereo not drawn), the figure is -6.32%. As for `Cc1n[nH]cc1CNC1(c2ccc(Br)cc2)CC1`, the figure is -0.84%; as for `Cc1n[nH]c(C2CN(Cc3csc(C4CCCCC4)n3)CCO2)n1` (stereo not drawn), 0.0665%; as for `CSCC(C)(O)CNc1ccccn1` (stereo not drawn), -1.72%. As for `Cc1cc(C)c(C(=O)NCCNc2ncnc3ccccc23)c(=O)[nH]1`, the figure is -2.04%. On to `COc1ccccc1NC(=O)NCc1cn[nH]c1`, for which the cytotoxicity at 70.5 h was -7.77%. In the case of `CNS(=O)(=O)c1csc(C(=O)N(C)Cc2sccc2C)c1`, the cytotoxicity at 70.5 h was -6.58%. As to `CSCC(C)(O)CNc1ncccc1C(F)(F)F` (stereo not drawn), the cytotoxicity at 70.5 h was determined as 1.25%. Turning to `CN(C)C(=O)CN1CCO[C@H]2CN(Cc3cccc(F)c3)C[C@H]21`, the cytotoxicity at 70.5 h was -8.07%. Turning to `Cc1oncc1C(=O)N1CC[C@H]2[C@H]1CCN2S(C)(=O)=O`, the cytotoxicity at 70.5 h was -1.36%.

`Cc1noc([C@@]23CCO[C@@H]2CCN(S(=O)(=O)c2cccnc2)C3)n1`: the cytotoxicity at 70.5 h was -6.17%. For `O=C(NCCc1cccc(F)c1)c1nc2c(s1)CCCN2C(=O)C1CC1`, the cytotoxicity at 70.5 h was -5.89%. With `Cc1ccc(N2CCc3ncnc(C4CC4)c3CC2)nn1`, the cytotoxicity at 70.5 h turned out to be 21.3%. For the molecule `c1cnc(N2CCO[C@H]3CN(CC4CCCC4)C[C@H]32)cn1`, the cytotoxicity at 70.5 h came to 2.36%. As to `COCCN1C(=O)CC(c2cccnc2)C12CCN(C)CC2` (stereo not drawn), the cytotoxicity at 70.5 h stood at 0.172%. As for `Cc1csc([C@@H]2C[C@@H]3CCN(Cc4cc(C)on4)C[C@H]3O2)n1`, the figure is -6.2%. As for `Cc1noc([C@]23COC[C@H]2CN(C(=O)Cc2ccsc2)C3)n1`, the figure is -2.9%; as for `O=C(NC[C@H]1C[C@@H]2CN(C(=O)c3ccco3)C[C@@H]2O1)c1ccsc1`, -3.16%.

In the case of `COCC1c2nnn(C)c2CCN1C(=O)Cc1ccccn1` (stereo not drawn), the cytotoxicity at 70.5 h is -3.79%. Take `Cn1cc(C(=O)N[C@@H]2CN(Cc3ccoc3)[C@@H]3CCCO[C@@H]32)cn1`: the cytotoxicity at 70.5 h was -5.02%. With `CCN1CC2(CC1=O)CN(C(=O)NC(C)C)CCN(S(C)(=O)=O)C2` (stereo not drawn) the figure was -2.48%; with `CCN1CC2(CC1=O)CN(C(C)=O)CCN(C(=O)NC)C2` (stereo not drawn), -3.8%; with `CCN1CC2(CC1=O)CN(C(=O)NC(C)C)CCN(C(=O)C(C)C)C2` (stereo not drawn), -3.19%. As for `N#Cc1cccc(C(=O)NC2CCc3c(ccc(=O)n3CC3CC3)C2)c1` (stereo not drawn), the figure is -2.82%; as for `Cc1cccc(CN2C[C@@H]3OCCN(CC(=O)N(C)C)[C@@H]3C2)c1`, -8.16%.

For the molecule `CC(C)CN1C(=O)CC[C@]12CC[C@@H](NC(=O)NCc1cccnc1)CC2`, the cytotoxicity at 70.5 h is -3.62%. As for `CCC(=O)Nc1ccc2c(c1)C1(CCOCC1)CN2CCOC`, the figure is 13.5%; as for `Cc1ccc(N2CC[C@@H]3[C@@H]2CCN3C(=O)Cc2ccsc2)nn1`, -4.23%. As for `Cc1ccc(N2CC[C@@H]3[C@@H]2CCN3C(=O)Cc2cccs2)nn1`, the figure is -3.66%; as for `CN(C)CCNC(=O)c1nc2c(s1)CCCN2C(=O)C1CC1`, -2.21%; as for `O=C(c1ccncc1)N1CCOC2(CCCN(c3nncs3)C2)C1` (stereo not drawn), -0.0919%.

As to `c1ccc(CN2Cc3nccn3CC(Cn3cccn3)C2)nc1` (stereo not drawn), the cytotoxicity at 70.5 h is -3.5%. As for `CC(=O)N1CCO[C@@H]2CN(Cc3cccc(Cl)c3)C[C@@H]2C1`, the figure is -2.75%; as for `Cn1cc(CN2C[C@@H]3COC[C@]3(COCC3CC3)C2)cn1`, -5.3%. With `c1cnc(N2CCO[C@H]3CN(CC4CCC4)C[C@H]32)cn1` the figure was -4.76%; with `Cn1ccnc1C(=O)N[C@@H]1CN(Cc2ccc(F)cc2)[C@@H]2CCCO[C@@H]21`, -3.63%; with `COc1ncccc1C(=O)N1CCC2(CC1)CC(OC)CO2` (stereo not drawn), -6.77%.

Consider `CC(=O)N1CCCC2(C1)CN(c1nncs1)CCO2` (stereo not drawn), for which the cytotoxicity at 70.5 h is -4.62%. With `c1cncc(N2CCO[C@H]3CN(CC4CCOC4)C[C@H]32)c1` (stereo partly drawn) the figure was -3.42%; with `CC1N(c2cnn(C)c2)C(=O)COC12CCN(c1ccccn1)CC2` (stereo not drawn), -2.76%; with `CO[C@@H]1CCN(C(=O)Cc2cccc(F)c2)[C@H]1Cc1cccnc1`, -3.88%. As for `CC1N(c2cnn(C)c2)C(=O)COC12CCN(CC1CC1)CC2` (stereo not drawn), the figure is -3.07%. As for `CO[C@@H]1CCN(C(=O)Cc2ccsc2)[C@H]1Cc1cccnc1`, the figure is -5.91%. Turning to `c1cnc(N2CCO[C@H]3CN(CC4CCOCC4)C[C@H]32)nc1`, the cytotoxicity at 70.5 h is -3.7%. As to `CN1CC[C@@H]2OC[C@H](C(=O)N(C)Cc3ccccn3)C[C@@H]2C1`, the cytotoxicity at 70.5 h was determined as 2.32%.

`O=C(C[C@@H]1COC[C@H]2CN(Cc3cccnc3)C[C@@H]12)NCC1CC1`: the cytotoxicity at 70.5 h is -4.39%.

`CN1CCN(C(=O)[C@H]2C[C@H]3[C@H](CCN3Cc3cccs3)O2)CC1`: the cytotoxicity at 70.5 h is -2.03%.

As for `Cc1cnc(N2CCC3(CC2)CN(Cc2cccs2)CCO3)nc1`, the cytotoxicity at 70.5 h was -8.99%.

Consider `c1cc(CN2CCN3C[C@H](Oc4cncnc4)C[C@H]3C2)ccn1`, for which the cytotoxicity at 70.5 h is -5.1%.
